From patent publication US20240368232A1, “ANTIVIRAL LARAZOTIDE DERIVATIVES” (priority 2021, published 2024) come the findings set out here.

Like-named read-outs stand apart in the source and are kept apart here. Square brackets hold non-standard residues; d marks the D form. Peptide text beside a SMILES is read from it.

Test [1] has as its system SARS-COV-2 SA (RG) strain. In words: microbe, parasite or virus in culture. Particulars: Severe acute respiratory syndrome coronavirus 2, Vero, read-out: Antiviral activity EC50 SA (RG) strain Vero cells.
In test [2] the test system is SARS-COV-2 SA (RG) strain.

With `CCC(CC)COC(=O)[C@H](C)N[P@](=O)(OC[C@H]1O[C@@](C#N)(c2ccc3c(N)ncnn23)[C@H](O)[C@@H]1O)Oc1ccccc1` [Remdesivir], in test [1], the EC50 (as a rule, the concentration that produces a half-maximal response) amounted to 840 nM.

As for `CC(=O)NCC(=O)N[C@H](Cc1ccccc1)C(=O)N[C@H](C=O)Cc1c[nH]cn1` [TRIP 5] (Ac-Gly-[dF]-His-aldehyde), the EC50 in test [2] is greater than 100 µM.
